Among the data in a melting point compilation (Tetko et al.; mined from patent text by program, amines drawn as free bases though some values may be those of a salt) are melting point values, retold here.

The melting point is the temperature, or range, at which the solid turns liquid.

Each structure is given as a SMILES string.

The molecule `CC(C)(C)n1ncc(NCCN2CCNC(c3cccc(C(F)(F)F)c3)C2)c(Cl)c1=O` (centres undefined) yielded a melting point of 124 to 127 °C. As for `N#Cc1ccc2c(c1)nc1n2CCC(=O)N1`, the figure is above 340 °C. As for `CCOC(=O)N(c1ccc(Cl)cc1)c1ccccc1-n1nc(C(=O)O)nc1CCl`, the figure is 190 to 192 °C. As for `CC(C)(C)c1csc(N)c1C#N`, the figure is 92 °C; as for `COc1nc(C)cnc1NS(=O)(=O)c1cccnc1-c1ccc(-c2ncon2)cc1`, 179 to 180 °C. `CCC(CN1C(=O)c2ccccc2C1=O)N1CCC(c2noc3cc(F)ccc23)CC1` (centres undefined) had a melting point of 86 to 88 °C. With `O=C1Nc2ccccc2SC(c2ccccc2)C1CO` (centres undefined) the figure was 248 °C. As for `O=c1[nH]c2c(cc1S(=O)(=O)c1ccccc1)CCc1cc[nH]c1-2`, the figure is 410 °C. Consider `COCCOc1ccc(C=O)cc1O`, for which the melting point fell in the range of 74 to 75 °C. With `CC1(C)N=C(c2ccccc2F)c2cc(N)ccc2-n2cnnc21` the figure was 288 °C; with `O=C1NC(=O)C(Cc2ccc(OCCON=Cc3cnc4ccccc4c3)cc2)S1` (centres undefined), 182 to 184 °C. As for `CCCCc1oc2ccccc2c1C(=O)NCC(=O)c1ccc2cc(OC)ccc2c1`, the figure is 129 to 131 °C. As for `CCOCn1c(S(=O)(=O)C(F)(F)C(F)Cl)c(C#N)c2ccccc21` (centres undefined), the figure is 97 to 100 °C; as for `Cc1cccc(-c2ccc([N+](=O)[O-])cc2)c1`, 59 to 60 °C. Consider `CC(=O)Nc1cccc(-c2ccc3nc(-c4cccnc4N)n(-c4ccc(CNS(=O)(=O)c5ccccc5)cc4)c3n2)c1`, for which the melting point is 180 to 182 °C. `Oc1ccc2c(c1O)OCC(c1ccccc1)C2` (centres undefined) had a melting point of 138 °C.

As for `Cc1nnc(-c2ccc3occ(-c4cccc(Cl)c4)c3c2)o1`, the melting point lay in the range of 145 to 146 °C. As for `Cc1cc(-c2oncc2CO)ccc1Cl`, the figure is 92 to 93 °C. With `CC1Oc2ccc(CN3CC=C(c4ccccc4)CC3)cc2NC1=O` (centres undefined) the figure was 248 to 255 °C; with `CCN(CC)CCOc1ccc(CNC(=O)C#Cc2ccc(C)cc2Cl)cc1`, 135 to 138 °C; with `Cc1csc2[nH]cc(C#N)c(=O)c12`, 285 °C. As for `CN1CCN(C2Cc3cc(Cl)ccc3Sc3ccc(F)cc32)CC1` (centres undefined), the figure is 118 to 120 °C; as for `Cn1ncc(CN2C(=O)c3ccccc3C2=O)c1-c1ccc(Cl)cc1C(=O)c1ccccc1F`, 153 to 155 °C; as for `CCOC(=O)CCc1ccc(OCC(=O)N(CC)CC)cc1Oc1ncc(C(F)(F)F)cc1Cl`, 88.5 to 89 °C.

The molecule `CCSC1=C(C#N)C(c2ccccc2)(c2ccccc2)C(=O)N1CCCNC(=O)OC(C)(C)C` gave a melting point of 88 °C.

Turning to `Cc1cc(=O)n(CCBr)o1`, the melting point lay within 39 to 40 °C. With `CC(C)NC(C)CC1=C2c3ccc(O)cc3CCC2CCNC1=O` (centres undefined) the figure was 202 to 204 °C; with `CCOC(=O)c1c(CN2CCCCC2)nc2cc(OC)c(OC)cc2c1-c1ccc(OC)c(OC)c1`, 148 to 149 °C. The molecule `CCCNC(=O)C1=C(C(=O)Nc2cc(OC3CCCC3)c(Cl)cc2F)CCCC1` had a melting point of 138 to 140 °C. With `COC(=O)NC(C)(C)c1ccc(CBr)cc1` the figure was 74 to 76 °C; with `CCCc1c(SCCCOc2ccc3c(=O)cc(C(=O)O)oc3c2CCC)ccc(C(C)=O)c1N`, 202 to 204 °C. As to `C=C(C1=C(CCC(=O)O)C(=O)CC1=O)c1ccccc1`, the melting point lay within 116 to 117 °C.

Molecule `CNc1cc(Br)cc(Sc2ccc([N+](=O)[O-])cc2)c1` yielded a melting point of 96 to 98 °C. On to `O=C(O)CCCCN(C1CCNCC1)S(=O)(=O)c1ccccc1`, for which the melting point was 115 to 120 °C. With `N#Cc1ccc(C(=O)c2ccc(OC3OC(CO)C(O)C(O)C3O)cc2)cc1` (centres undefined) the figure was 122 °C; with `ClCc1ccc(-n2c3ccccc3c3ccccc32)cc1`, 88 to 89 °C. As for `CCOc1ccc2[nH]c(=O)sc2c1`, the figure is 147 °C. In turn, `CCS(=O)CCn1nc(-c2cccc(Cl)c2Cl)c(=O)c2cccc(OC)c21` (centres undefined) came in with a melting point of 128 to 130 °C.

For the molecule `OC(CSCc1ccc(Cl)cc1)(Cn1cncn1)c1ccc(Cl)cc1Cl` (centres undefined), the melting point was in the range of 106 to 107 °C. For `O=C(OCc1ccncc1)c1ccc2[nH]c(=O)n(Cc3ccc4c(c3)OCO4)c(=O)c2c1`, the melting point was determined as 204 °C. With `O=[N+]([O-])c1oc2ccc(-c3nnn[nH]3)cc2c1-c1ccccc1` the figure was 215 to 217 °C; with `O=[N+]([O-])c1cnccc1NCc1ccc(F)cc1`, 137 °C.

`FC(F)(F)C1(C(F)(F)F)c2ccccc2Oc2ccccc21`: the melting point lay within 74 to 75 °C.

The molecule `Cc1cc(NS(=O)(=O)c2ccc(S(N)(=O)=O)cc2)c2[nH]cc(Br)c2c1` displayed a melting point of 196 to 197 °C. With `O=COCc1cc2c3ccccc3[nH]c(=O)n2n1` the figure was 190 to 192 °C; with `CCN(C(=O)CN1C(=O)c2ccccc2C1=O)c1ccc(C)c(CO)c1C`, 205 to 207 °C. As for `CC(=O)N1CCc2cc(Br)cc(N)c21`, the figure is 154 to 155 °C.

As for `CCOC(CNc1nncs1)OCC`, the melting point was 108 to 112 °C. As for `Cc1nc(C)c(C(C)(O)c2ccoc2)s1` (centres undefined), the figure is 104 to 105 °C. The molecule `COC(=O)COc1noc2ccc([N+](=O)[O-])cc12` yielded a melting point of 72 to 73.5 °C. With `O=C(Oc1ccccc1)C1CCCc2ccc([N+](=O)[O-])cc21` (centres undefined) the figure was 83 to 84 °C; with `CCOC(=O)C1=C(C#N)Nc2nccn2C1c1cccc([N+](=O)[O-])c1` (centres undefined), 260 to 261 °C; with `C[C@@H](n1cnc2cccc(Cl)c2c1=O)[C@](O)(Cn1cncn1)c1ccc(F)cc1F`, 114 to 119 °C.

Regarding `O=C1c2ccccc2C(=O)N1CCCOc1ccc(O)cc1`, the melting point was in the range of 135 to 137 °C. For `COCCN(CCOC)c1ccccc1NC(N)=S`, the melting point is 118 to 119 °C. With `COc1c(OC)c(OC(C)=O)c2ccc(Cl)cc2c1O` the figure was 155 to 156 °C; with `CCCCc1nc2c(N)nc3ccccc3c2n1CCCNS(=O)(=O)c1ccccc1`, 210 to 212 °C; with `Cc1c(Cl)cccc1NC(=O)Nc1ccc(-n2nc(C(F)(F)F)cc2C(F)(F)F)cc1`, 193 to 196 °C. With `CCOC(=O)CCCN1CCC2(CC1)CN(c1ccc(C#N)cc1)C(=O)O2` the figure was 78 to 80 °C; with `COc1ccc2nc(SC3CCCc4ccc(O)nc43)[nH]c2c1` (centres undefined), 217 to 218 °C. With `CCn1cc(-c2ccc([C@H](C)N3CC[C@](CC(C)(C)O)(c4ccc(F)cc4)OC3=O)cc2)ccc1=O`, the melting point lay in the range of 172 to 174 °C. As for `CCOC(=O)c1c(C)cc2nc(CO)n(-c3ccc4c(c3)OCO4)c(=O)c2c1C`, the figure is 159 to 161 °C. As for `N#Cc1ccc(C=O)c(-c2cccs2)c1`, the figure is 114 °C; as for `FC(F)(F)c1cccc(C2=NOC(CNC(=S)N3CCOCC3)C2)c1` (centres undefined), 118 to 120 °C.
